# Data from patent US4446129A, “Method for treatment of arthrosis deformans with elastase” (Eisai Co., Ltd., priority 1982, dated 1984).
# “And” between values parts separate entries of the source, which are not always exact repeats. Identical values can stand only once. “Also recorded” adds a separate entry of the source.
# Experiments:
# elastase = settings: cited from earlier work
# lipoprotein = settings: cited from earlier work
# gonarthralgia = assay: Clinical examples: effectiveness against gonarthralgia; assay type: in vivo, human
# Source text: (§1) The subjects included 18 patients (men 6 cases, women 12 cases, ages 57 to 88, average 70.9±8.2 years old) that were diagnosed negative as to rheumatoid arthrosis and were clinically diagnosed as suffering from gonarthrosis deformans. […] The distribution of the duration of gonarthralgia in the patients from the onset thereof was such that six cases fell into each of the periods of (1) three years or shorter, (2) four to five years, and (3) five years or longer.
# (§2) The effectiveness of elastase against gonarthrosis deformans was evaluated by administering capsules containing 1,800 EL.U elastase at a daily dosage of 3 capsules per day to each patient for 8 weeks, and investigating the severity of gonarthralgia before administration, 4 weeks after administration, and 8 weeks after administration.
# (§3) However, these patients had received and continued to receive during the test period antihypertensive agents, agents for improving cerebral circulation and other drugs for the treatment of their underlying diseases. However, the levels of these drugs in the patients' bodies remained unchanged from the day 8 weeks before the start of the test up to the last day of the test. During the tests, no patient received any other antiinflammatory, analgesic or steroid having the possible effect of palliation of arthralgia.
# [1] = tested on: Wistar strain female and male rats; assay: Chronic toxicity, rats; assay type: in vivo, rat; settings: oral, 2,250, 5,700, 11,250 or 22,500 EL. U/kg/day for 24 weeks
# Source text: Elastase was orally administered to Wistar strain female and male rats at dosages of 2,250, 5,700, 11,250 or 22,500 EL. U/kg/day for 24 weeks.
# [2] = tested on: female and male beagle dogs; assay: Subacute toxicity, dogs; assay type: in vivo, dog; settings: oral, 900 or 4,500 EL. U/kg/day for 12 weeks
# Source text: (§4) Elastase was orally administered to Wistar strain female and male rats at dosages of 750, 7,500 and 37,500 or 75,000 EL. U/kg/day for 4 weeks, and to female and male beagle dogs at dosages of 900 or 4,500 EL. U/kg/day for 12 weeks.
# [3] = porcine elastase; cited from earlier work
# pregnant rats = assay: Teratogenicity, rats; assay type: in vivo, rat; settings: oral, 750, 7,500 or 75,000 EL. U/kg/day, 6 days
# Source text: (§5) Elastase was forcibly orally administered to pregnant mice and rats in the stage of organogenesis at dosages of 750, 7,500 or 75,000 EL. U/kg/day for 6 consecutive days. As a result, death, hindrance to growth and teratogenesis of the embryos were not observed, and there was no effect upon the morphological and functional differentiation of the newborn animals.
# [4] = tested on: Wistar strain female and male rats; assay: Subacute toxicity, rats; assay type: in vivo, rat; settings: oral, 750, 7,500 and 37,500 or 75,000 EL. U/kg/day for 4 weeks
# Source text: as §4
# [5] = tested on: other types of arthralgia; assay: Clinical examples: effectiveness against other types of arthralgia and symptoms; assay type: in vivo, human
# Source text: as §1, §2, §3
# [6] = tested on: lipid metabolism in the serum and tissues; arterial walls; settings: cited from earlier work
# [7] = Absorption, blood concentration and fate of elastase after oral administration; assay type: in vivo
# pregnant mice = assay: Teratogenicity, mice; assay type: in vivo, mouse; settings: oral, 750, 7,500 or 75,000 EL. U/kg/day, 6 days
# Source text: as §5
# human patients = assay: Clinical examples: side effects; assay type: in vivo; settings: for resolution of epigastric discomfort: after 4 weeks
# Source text: as §1, §2, §3
# [8] = duration 3 years or shorter, 4 w
# [9] = duration 3 years or shorter, 8 w
# [10] = duration 5 years or longer, 4 w
# [11] = duration 5 years or longer, 8 w
# [12] = individual patient case (one line per case No. 1-18), 3 capsules of 1,800 EL.U per day
# [13] = individual patient case (Table 2)
molecule,measurement,setting,value
N.N.O=S(=O)(O)O [(NH4)2 SO4],inhibition of elastase activity,elastase,inhibited
O=S(=O)([O-])[O-].[Cu+2] [CuSO4],inhibition of elastase activity,elastase,inhibited
[Cl-].[K+] [KCl],inhibition of elastase activity,elastase,inhibited
[Cl-].[Na+] [NaCl],inhibition of elastase activity,elastase,inhibited
"elastase: enzyme which specifically decomposes elastin, a water-insoluble scleroprotein; industrially produced by extraction from swine pancreas","optimal activation pH, particularly",elastase; N-α-benzoyl-L-alanine methyl ester as substrate,about 8.8
same,optimal activation pH,"elastase; N-α-benzoyl-L-alanine methyl ester as substrate, range",8 to 10
same,"decomposition of N-α-benzoyl-L-alanine methyl ester, acetyl-L-trialanine-p-nitroanilide and elastin",elastase; porcine elastase,specifically decomposing
same,β-lipoproteinase activity and lipoprotein lipase activity,lipoprotein,confirmed
same,"""ineffective"" result, number",gonarthralgia; 4 to 5 year group,one
same,"""ineffective"" result, number",gonarthralgia; 5 years or longer group,one
same,result (case history),"gonarthralgia; Case 4, Case 8, Case 16, Case 13",markedly effective; also recorded: ineffective (when there was no effect)
same,pain in knee joints when administration was discontinued,gonarthralgia; Case 9,worsened
same,gonarthralgia after restart of administration,"gonarthralgia; Case 9, restarted at beginning of third week",palliation of gonarthralgia
same,"improvement, case history","gonarthralgia; Case 13, after either 4 weeks or 8 weeks",no improvement was recognized
same,"difficulty with Japanese dancing, case history","gonarthralgia; Case 16, after 4 weeks",disappeared
same,"knee pain, case history","gonarthralgia; after 4 weeks, Case 4, Case 8, Case 16",completely cleared up; also recorded: disappeared entirely
same,gonarthralgia in cases with other symptoms,gonarthralgia; all of these cases,palliated or cleared up
same,"aggravated, number of cases",gonarthralgia; [8],0
same,"effective, number of cases",gonarthralgia; [8],3
same,"ineffective, number of cases",gonarthralgia; [8],0
same,"markedly effective, number of cases",gonarthralgia; [8],3
same,rate of effectiveness,gonarthralgia; [8],100%
same,rate of effectiveness (cases/total),gonarthralgia; [8],6/6
same,"aggravated, number of cases",gonarthralgia; [9],0
same,"effective, number of cases",gonarthralgia; [9],3
same,"ineffective, number of cases",gonarthralgia; [9],0
same,"markedly effective, number of cases",gonarthralgia; [9],3
same,rate of effectiveness,gonarthralgia; [9],100%
same,rate of effectiveness (cases/total),gonarthralgia; [9],6/6
same,"aggravated, number of cases","gonarthralgia; duration 4 to 5 years, 4 w",0
same,"effective, number of cases","gonarthralgia; duration 4 to 5 years, 4 w",3
same,"ineffective, number of cases","gonarthralgia; duration 4 to 5 years, 4 w",1
same,"markedly effective, number of cases","gonarthralgia; duration 4 to 5 years, 4 w",2
same,rate of effectiveness,"gonarthralgia; duration 4 to 5 years, 4 w",83.3%
same,rate of effectiveness (cases/total),"gonarthralgia; duration 4 to 5 years, 4 w",5/6
same,"aggravated, number of cases","gonarthralgia; duration 4 to 5 years, 8 w",0
same,"effective, number of cases","gonarthralgia; duration 4 to 5 years, 8 w",2
same,"ineffective, number of cases","gonarthralgia; duration 4 to 5 years, 8 w",1
same,"markedly effective, number of cases","gonarthralgia; duration 4 to 5 years, 8 w",3
same,rate of effectiveness,"gonarthralgia; duration 4 to 5 years, 8 w",83.3%
same,rate of effectiveness (cases/total),"gonarthralgia; duration 4 to 5 years, 8 w",5/6
same,"aggravated, number of cases",gonarthralgia; [10],0
same,"effective, number of cases",gonarthralgia; [10],4
same,"ineffective, number of cases",gonarthralgia; [10],1
same,"markedly effective, number of cases",gonarthralgia; [10],1
same,rate of effectiveness,gonarthralgia; [10],83.3%
same,rate of effectiveness (cases/total),gonarthralgia; [10],5/6
same,"aggravated, number of cases",gonarthralgia; [11],0
same,"effective, number of cases",gonarthralgia; [11],3
same,"ineffective, number of cases",gonarthralgia; [11],1
same,"markedly effective, number of cases",gonarthralgia; [11],2
same,rate of effectiveness,gonarthralgia; [11],83.3%
same,rate of effectiveness (cases/total),gonarthralgia; [11],5/6
same,"cases with gonarthralgia completely cleared up, number",gonarthralgia; duration greater than 5 years,two
same,overall rate of improvement,gonarthralgia; entire group of 18 patients,88.9%
same,"patients with distinct palliation or complete clearing of gonarthralgia, number",gonarthralgia; entire group of patients,sixteen
same,"results of ""aggravated""",gonarthralgia; entire group of patients,"no results of ""aggravated"""
same,"results of ""ineffective"", number",gonarthralgia; entire group of patients,two
same,Effect on arthralgia after 4 w.,gonarthralgia; [12],+ (effective) and ++ and - (ineffective)
same,Effect on arthralgia after 8 w.,gonarthralgia; [12],+ (effective) and ++ and - (ineffective)
same,persistent gonarthralgia,"gonarthralgia; most of the patients, during term of administration, not informed of relation",considerably palliated or completely cleared up
same,"results of ""markedly effective"", 8 weeks compared with 4 weeks",gonarthralgia; overall,somewhat higher after the 8 week period
same,rate of effectiveness,"gonarthralgia; overall, 4 w",88.9%
same,rate of effectiveness (cases/total),"gonarthralgia; overall, 4 w",16/18
same,"effective, number of cases","gonarthralgia; overall, 4 w, 18 cases",10
same,"markedly effective, number of cases","gonarthralgia; overall, 4 w, 18 cases",6
same,rate of effectiveness (cases/total),"gonarthralgia; overall, 8 w",16/18
same,rate of effectiveness / overall rate of improvement,"gonarthralgia; overall, 8 w",88.9%
same,"rate of ""effective""","gonarthralgia; overall, after 4 weeks",55.6%
same,"rate of ""ineffective""","gonarthralgia; overall, after 4 weeks",11.1%
same,"rate of ""markedly effective""","gonarthralgia; overall, after 4 weeks",33.3%
same,"rate of ""aggravated""","gonarthralgia; overall, after 8 weeks",0%
same,"rate of ""effective""","gonarthralgia; overall, after 8 weeks",44.4% and 44.48%
same,"rate of ""ineffective""","gonarthralgia; overall, after 8 weeks",11.1%
same,"rate of ""markedly effective""","gonarthralgia; overall, after 8 weeks",44.4% and 44.48%
same,onset of perceived palliation or clearing of arthralgia,"gonarthralgia; patients who showed improvement, after start of administration",at the beginning of the second week
same,"Chronic toxicity: general physical condition, blood and urinary tests, morphological observations",[1],no anomalous findings
same,"Subacute toxicity: general physical condition, blood and urinary tests, morphological observations",[2],no noteworthy anomalous findings
same,isoelectric point,[3],9.5±0.5 pH
same,effect upon morphological and functional differentiation of the newborn animals,pregnant rats,no effect
same,"death, hindrance to growth and teratogenesis of the embryos",pregnant rats; organogenesis,not observed
same,"Subacute toxicity: general physical condition, blood and urinary tests, morphological observations",[4],no noteworthy anomalous findings
same,morning stiffness in the fingers,"[5]; Case 4, after 4 weeks",cleared up
same,lumbago,"[5]; Case 5, during the term of administration",cleared up
same,cinesalgia in the left shoulder (periarthritis),"[5]; Case 6, during the term of administration",No change
same,anomalies of sensation in fingers,[5]; Cases 10 and 15,not cleared up
same,Miscellaneous,[5]; [13],morning stiffness in hands cleared; also recorded: carpal tunnel syndrome not changed; also recorded: dancing eliminated
same,Miscellaneous: lumbago,[5]; [13],cleared; also recorded: lumbago lasting
same,"removal of denatured elastin, formation of fresh elastin, fat deposition, atherosclerosis",[6]; arterial walls,functions to remove denatured elastin from arterial walls and to promote formation of fresh elastin
same,effect on disturbance of lipid metabolism in the serum and tissues,[6]; in vivo,normalizing effect
same,elasticity and dilatability of arterial walls,[6]; in vivo,maintains and promotes
same,time of maximum concentration of elastase in the blood,[7]; after (oral) administration,6 h
same,combination with blood proteins,[7]; in the blood,combines with α2 -macroglobulin and α1 -antitrypsin
same,area under the blood concentration curve versus dosage,[7]; oral,increases in proportion to the dosage
same,distribution,[7]; oral,distributed widely over all of the body tissues
same,excretion,[7]; oral,excreted into the urine
same,metabolism,[7]; oral,metabolized chiefly in the liver
same,effect upon morphological and functional differentiation of the newborn animals,pregnant mice,no effect
same,"death, hindrance to growth and teratogenesis of the embryos",pregnant mice; organogenesis,not observed
same,discontinuation of administration in cases with epigastric discomfort,human patients; 3 cases (conclusions),not discontinued in any of these cases
same,"epigastric discomfort, number of cases","human patients; 18 patients, 8 weeks",3
same,"epigastric discomfort, rate","human patients; 18 patients, 8 weeks",16.7%
same,Miscellaneous: discontinuation and restart,human patients; Case 9 (Table 2),administration discontinued after 2 w; also recorded: restarted because of worsened arthralgia
same,resolution of epigastric discomfort,"human patients; Case 9, administration restarted",cleared up after 4 weeks
same,discontinuation of administration because of epigastric discomfort,"human patients; Case 9, at the beginning of the second week",discontinued at the beginning of the second week
same,epigastric discomfort,"human patients; Cases 3, 6 and 9, one to two weeks after administration began",suffered from epigastric discomfort for several days
same,resolution of epigastric discomfort,human patients; Cases 3 and 6,disappeared after 4 weeks
same,"nausea, vomiting, exanthema or the like",human patients; all cases,In none of the cases
same,Side effect (transient epigastric discomfort),human patients; [13],transient
